From patent US20170029388A1, “Treatment of Neurodegenerative Diseases with Asparagine Endopeptidase (AEP) Inhibitors and Compositions Related Thereto” (INTERCONTINENTAL GREAT BRANDS LLC, priority 2014, published 2017) come the findings set out here.

One series addresses T1, AEP (Homo sapiens, UniProt Q99538).
T1 construct: tested with purified active AEP, IC50 values for the top 8 candidates were found; purchased Sino Biological
T1 sequence (Q99538 18-323 limits assumed): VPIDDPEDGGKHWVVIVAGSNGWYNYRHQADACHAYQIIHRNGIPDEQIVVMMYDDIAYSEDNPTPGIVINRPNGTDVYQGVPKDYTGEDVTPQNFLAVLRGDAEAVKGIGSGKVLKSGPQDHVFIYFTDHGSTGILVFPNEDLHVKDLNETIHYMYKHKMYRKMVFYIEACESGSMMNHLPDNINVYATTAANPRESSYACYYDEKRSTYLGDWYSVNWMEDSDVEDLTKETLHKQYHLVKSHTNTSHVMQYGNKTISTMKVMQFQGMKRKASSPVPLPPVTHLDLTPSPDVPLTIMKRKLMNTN
As to the kind of experiment: DTT reversibility assay. It counts as biochemical. To be noted: 5x IC50 of compound, 10 mM DTT or L-cysteine. How it is done:
AEP was reacted with specified inhibitor, after 15 min 10 mM DTT or L-cysteine was added to the reaction and the fluorescent signal was read for an additional 15 min. At the end of the second 15 min incubation, the percentage of product formed in the presence of each compound was determined in comparison to the DMSO control reaction.
Although it is not intended that embodiments of this disclosure be limited by any particular mechanism, to gain additional insight into the mechanism utilized by the inhibitors for abrogation of AEP activity, their reversibility in the presence of free thiols was determined. The addition of a strong reducing agent, such as DTT, or a weaker reducing agent, L-cysteine, to an inhibited reaction can be used to out-compete the inhibitory agent and restore catalytic activity to an enzyme with an active-site thiol residue. Here, a similar approach was used by adding a reducing agent, either DTT or L-cysteine, to a reaction, in which AEP had been incubated with a specified inhibitor, in an attempt to reverse the effects of the inhibitor. […] For compounds BB1 and 38, this increase in enzymatic activity may be due to the reduction of a disulfide linkage between the inhibitor and the enzyme, since these compounds contain thiols. Compound 10 contains a thiocyanate and may undergo nucleophilic attack by the enzyme's active-site thiolate to form a thioimidate enzyme-inhibitor complex. Under acidic conditions, this complex is reducible by either a strong reducing agent, such as DTT, or the weaker L-cysteine.
Simultaneously, 10 mM (final concentration) dithiothreitol (DTT) or L-cysteine was added to each reaction and incubated for an additional 15 min. At the end of the second 15 min incubation time, the fluorescence was measured for each sample. The amount of product formed in the presence of DMSO was used to determine the percentage of AEP activity in the presence of each drug.

For another series, the target named is CYP2C9 (Homo sapiens, UniProt P11712). As to the kind of experiment: CYP inhibition screening, CYP2C9. Type of series: in vitro ADME.
The target in a further series is CYP3A4 (Homo sapiens, UniProt P08684). As to the kind of experiment: CYP inhibition screening, CYP3A4-Midazolam. Type of series: in vitro ADME.
In another series the target is T2, CYP1A2 (Homo sapiens, UniProt P05177).
T2 sequence (P05177 1-516): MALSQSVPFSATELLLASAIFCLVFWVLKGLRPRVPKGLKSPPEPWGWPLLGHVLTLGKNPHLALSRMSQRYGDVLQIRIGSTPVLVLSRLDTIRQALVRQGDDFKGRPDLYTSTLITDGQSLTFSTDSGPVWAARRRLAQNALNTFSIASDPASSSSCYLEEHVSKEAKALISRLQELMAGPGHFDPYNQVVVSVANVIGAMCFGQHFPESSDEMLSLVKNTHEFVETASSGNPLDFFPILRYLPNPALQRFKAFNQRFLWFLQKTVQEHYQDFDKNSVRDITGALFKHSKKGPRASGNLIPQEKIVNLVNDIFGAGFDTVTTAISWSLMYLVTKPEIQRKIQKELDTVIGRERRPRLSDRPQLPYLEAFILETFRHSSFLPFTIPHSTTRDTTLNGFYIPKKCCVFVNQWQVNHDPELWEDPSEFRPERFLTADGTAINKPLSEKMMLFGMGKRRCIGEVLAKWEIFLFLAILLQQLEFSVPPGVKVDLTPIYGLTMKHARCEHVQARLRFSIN
As to the kind of experiment: CYP inhibition screening, CYP1A2. Type of series: in vitro ADME.

For series [1] the following is noted: PAMPA.
Another series relates to Caco-2 monolayer. As to the kind of experiment: Caco-2 monolayer permeability screen. Type of series: in vitro ADME. As to conditions: for A -> B Papp / B -> A Papp / RE: Caco-2.

Sequence of CYP2C9 (P11712 whole entry): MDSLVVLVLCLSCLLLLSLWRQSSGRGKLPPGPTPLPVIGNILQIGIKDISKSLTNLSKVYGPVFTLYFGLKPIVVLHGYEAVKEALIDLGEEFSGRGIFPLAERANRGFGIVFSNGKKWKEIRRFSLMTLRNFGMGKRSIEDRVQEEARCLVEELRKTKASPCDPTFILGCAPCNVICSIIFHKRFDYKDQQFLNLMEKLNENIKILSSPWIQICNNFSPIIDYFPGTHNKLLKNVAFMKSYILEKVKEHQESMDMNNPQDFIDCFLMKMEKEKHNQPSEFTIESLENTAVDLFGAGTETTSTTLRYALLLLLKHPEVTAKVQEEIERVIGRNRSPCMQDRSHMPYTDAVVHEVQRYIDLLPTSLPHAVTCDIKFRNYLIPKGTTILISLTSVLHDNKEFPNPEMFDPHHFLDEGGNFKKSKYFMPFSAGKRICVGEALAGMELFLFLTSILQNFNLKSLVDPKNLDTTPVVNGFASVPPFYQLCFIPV
Sequence of CYP3A4 (P08684 whole entry): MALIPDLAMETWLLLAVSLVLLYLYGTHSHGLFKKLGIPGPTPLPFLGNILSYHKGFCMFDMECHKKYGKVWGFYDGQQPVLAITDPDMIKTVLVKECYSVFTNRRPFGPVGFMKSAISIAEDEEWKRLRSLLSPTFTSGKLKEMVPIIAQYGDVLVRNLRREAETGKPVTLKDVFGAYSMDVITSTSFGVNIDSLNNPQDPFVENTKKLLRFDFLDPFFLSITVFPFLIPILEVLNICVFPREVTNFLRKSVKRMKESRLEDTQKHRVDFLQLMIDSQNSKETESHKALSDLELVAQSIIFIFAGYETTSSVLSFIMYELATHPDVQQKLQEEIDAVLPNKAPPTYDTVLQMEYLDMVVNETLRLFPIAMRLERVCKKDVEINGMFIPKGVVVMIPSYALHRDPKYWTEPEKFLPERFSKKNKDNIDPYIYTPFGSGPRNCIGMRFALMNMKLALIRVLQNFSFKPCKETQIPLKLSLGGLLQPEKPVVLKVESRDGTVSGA
Protocol for Caco-2 monolayer: To explore the in vitro ADME profiles of the compounds, additional tests were conducted.

In the case of `Sc1nnc(Nc2ccccc2)s1` [Compound BB1], at AEP, the “AEP activity after addition of reducing agent (reversibility)” value is reported as “regained a substantial amount of activity”.
On to `Cn1c(=O)[nH]c(=O)c2c1nc(S)n2CC(O)COc1ccc(Cl)cc1` (stereo not drawn) [Compound 38], for which the “CYP inhibition, CYP2C9” value was 15.6% on CYP2C9 (test concentration 3 μM) and 17.1% on CYP2C9 (test concentration 10 μM). Moreover, at AEP, the “AEP activity after addition of reducing agent (reversibility)” value is recorded as “regained a substantial amount of activity”. In addition, the results for the “CYP inhibition, CYP3A4-Midazolam” value at CYP3A4 (test concentration 3 μM) and on CYP3A4 (test concentration 10 μM) were 7.3% and 10.4%, respectively. Further, the “CYP inhibition, CYP1A2” value on CYP1A2 (test concentration 3 μM) is −7.6%; on CYP1A2 (test concentration 10 μM), 10.5%. In addition, in series [1], the Pe is listed as 0.007 10^−6 cm · s^−1. Moreover, the “A -> B Papp” value in the series on Caco-2 monolayer is 1.1 10^−6 cm · s^−1. In addition, the “B -> A Papp” value in the series on Caco-2 monolayer is 20.3 10^−6 cm · s^−1. The RE in the series on Caco-2 monolayer amounted to 18.2.
For the molecule `Nc1ccc(N2CCOCC2)c2nonc12` [Compound 11], the “CYP inhibition, CYP2C9” value at CYP2C9 (test concentration 3 μM) turned out to be 4.3%. Besides, the “CYP inhibition, CYP2C9” value at CYP2C9 (test concentration 10 μM) is 5.6%. The “CYP inhibition, CYP3A4-Midazolam” value on CYP3A4 (test concentration 3 μM) is recorded as 3.6%. At CYP3A4 (test concentration 10 μM), the “CYP inhibition, CYP3A4-Midazolam” value came out at 8.0%. Also, the “CYP inhibition, CYP1A2” value at CYP1A2 (test concentration 3 μM) is recorded as 13.1%. Moreover, the “CYP inhibition, CYP1A2” value at CYP1A2 (test concentration 10 μM) is listed as 37.0%. For the same molecule, in series [1], the Pe was >25 10^−6 cm · s^−1 and the “blood-brain barrier permeability (in words)” value is reported as “able to cross the blood-brain barrier”. For the same molecule, in the series with Caco-2 monolayer, the “Caco-2 permeability (in words)” value is “highly permeable”, the “A -> B Papp” value is recorded as 35.0 10^−6 cm · s^−1, the “B -> A Papp” value is recorded as 7.0 10^−6 cm · s^−1 and the RE was found to be 0.2.
